# Reference: patent US9932637B2, “Genetic polymorphisms associated with cardiovascular disorders and drug response, methods of detection and uses thereof” (CELERA CORPORATION, priority 2003, dated 2018)
# “And” between values parts separate entries of the source, which are not always exact repeats. Equal values may be shown once.
# System: patients with prior myocardial infarction (CARE study)
# Test: CARE aligned analysis (prospective and case/control design, white males): association of genotypes with pravastatin efficacy (Tables 13, 15)
# Assay type: in vivo, human
# Conditions: for Pravastatin Patients n/total / Pravastatin Patients (%) / 2 Rare Alleles (%), Pravastatin Patients: F&NF MI; for Pravastatin Patients n/total / Pravastatin Patients (%): WM; for Pravastatin vs placebo odds ratio, 0 rare alleles / Pravastatin vs placebo odds ratio, 1 rare allele / Pravastatin vs placebo odds ratio, 2 rare alleles / 2 rare alleles n/total (%), pravastatin patients: CARE, F MI/SD/NF MI; for Pravastatin vs. Placebo Odds Ratio (95% CI), Patients with 0 Rare Alleles / n/total (%) cases, Pravastatin Patients, 0 Rare Alleles: PON1 hCV2548962, 0 rare alleles; for Pravastatin vs. Placebo Odds Ratio (95% CI), Patients with 0 Rare Alleles / n/total (%) cases, Pravastatin Patients, 0 Rare Alleles / Pravastatin vs. Placebo Odds Ratio (95% CI), Patients with 1 Rare Allele / n/total (%) cases, Pravastatin Patients, 1 Rare Allele / Pravastatin vs. Placebo Odds Ratio (95% CI), Patients with 2 Rare Alleles / n/total (%) cases, Pravastatin Patients, 2 Rare Alleles: White Males; for Pravastatin vs. Placebo Odds Ratio (95% CI), Patients with 1 Rare Allele / n/total (%) cases, Pravastatin Patients, 1 Rare Allele: PON1 hCV2548962, 1 rare allele
# Protocol: The data presented in Table 8 based on an association of genotypes with pravastatin efficacy of the CARE samples were further analyzed and presented in Table 13. The further analysis was performed to align the data obtained from the analysis of the CARE samples, which was a prospective study, to the analysis of the WOSCOP samples, which was a case/control study. Table 13 also presents an analysis of the association of genotypes with pravastatin efficacy in the WOSCOPs samples. Relative to the analysis performed on the data presented in Table 8, there are two significant differences to determine if the SNP influenced pravastatin efficacy. Data obtained from the CARE samples were separated by study design into two groups, those in the prospective study design group and those in the case/control study design group. The original care study contained 16 protocol defined cardiovascular disease defined endpoints and 150 other phenotypes. […] The control groups used to compare the data were also divided into two groups, the “all possible” control group and the “cleaner” control group. […] Because the participants in the WOSCOPs trial were all white males, only data obtained from white males in the CARE study were analysed. Data from the “all possible” and “cleaner” controls were compared to data obtained from the cases in the prospective study design while only data from “cleaner” controls were compared to cases in the case/control study design. The data from the case/control cohorts were analysed using conditional logistic regression (as opposed to logistic regression used for the original anaylsis).
# The anaylsis was refined as described for both Tables 13 and 14.
# [1] = NPC1 hCV7490135, 0 Rare Alleles, CARE Prospective, Cleaner controls
# [2] = NPC1 hCV7490135, 1 Rare Allele, CARE Prospective, Cleaner controls
# [3] = NPC1 hCV25472673, 0 Rare Alleles, CARE Case/Control, Cleaner controls
# [4] = NPC1 hCV25472673, 0 Rare Alleles, CARE Prospective, Cleaner controls
# [5] = NPC1 hCV25472673, 1 Rare Allele, CARE Case/Control, Cleaner controls
# [6] = NPC1 hCV25472673, 1 Rare Allele, CARE Prospective, Cleaner controls
# [7] = PLAB hCV7494810, 0 Rare Alleles, CARE Case/Control, All Possible controls
# [8] = PLAB hCV7494810, 0 Rare Alleles, CARE Case/Control, Cleaner controls
# [9] = PLAB hCV7494810, 0 Rare Alleles, CARE Prospective, All Possible controls
# [10] = PLAB hCV7494810, 1 Rare Allele, CARE Case/Control, All Possible controls
# [11] = PLAB hCV7494810, 1 Rare Allele, CARE Case/Control, Cleaner controls
# [12] = PLAB hCV7494810, 1 Rare Allele, CARE Prospective, All Possible controls
# [13] = PLAB hCV7494810, Case/Control, listed as Pravastatin
# [14] = PLAB hCV7494810, Prospective, listed as Pravastatin
# [15] = CARE Case/Control, Fatal & Nonfatal MI, Cleaner controls
# [16] = CARE Prospective, Fatal & Nonfatal MI, Cleaner controls
# [17] = CARE Prospective, Total CHD Events, All Possible controls
# [18] = PON1 hCV2548962, 2 rare alleles, CARE Case/Control, Fatal & Nonfatal MI, Cleaner controls
# [19] = PON1 hCV2548962, 2 rare alleles, CARE Prospective, Fatal & Nonfatal MI, Cleaner controls
structure (smiles),measurement,setting,value
CC[C@H](C)C(=O)O[C@H]1C[C@H](O)C=C2C=C[C@H](C)[C@H](CC[C@@H](O)C[C@@H](O)CC(=O)O)[C@H]21 [pravastatin],Pravastatin Patients n/total,"NOS3 hCV3219460, 1 Rare Allele, CARE Prospective, Cleaner controls",64/366
same,"Pravastatin vs placebo odds ratio, 0 rare alleles","NOS3 hCV3219460, Case/Control",0.76 and 0.67
same,"Pravastatin vs placebo odds ratio, 1 rare allele","NOS3 hCV3219460, Case/Control",1.04 and 0.98
same,"Pravastatin vs placebo odds ratio, 2 rare alleles","NOS3 hCV3219460, Case/Control",0.27 and 0.23
same,"Pravastatin vs placebo odds ratio, 0 rare alleles","NOS3 hCV3219460, Prospective",0.79 and 0.70
same,"Pravastatin vs placebo odds ratio, 1 rare allele","NOS3 hCV3219460, Prospective",1.04 and 0.95
same,"Pravastatin vs placebo odds ratio, 2 rare alleles","NOS3 hCV3219460, Prospective",0.27 and 0.22
same,Pravastatin Patients (%),[1],(18.3%)
same,Pravastatin Patients n/total,[1],44/240
same,Pravastatin Patients (%),[2],(13.7%)
same,Pravastatin Patients n/total,[2],56/408
same,"2 Rare Alleles (%), Pravastatin Patients","NPC1 hCV7490135, CARE Prospective",(13.8%)
same,Pravastatin Patients (%),[3],(17.4%)
same,Pravastatin Patients n/total,[3],53/304
same,Pravastatin Patients (%),[4],(17.3%)
same,Pravastatin Patients n/total,[4],53/307
same,Pravastatin Patients (%),[5],(13.5%)
same,Pravastatin Patients n/total,[5],51/378
same,Pravastatin Patients (%),[6],(13.2%)
same,Pravastatin Patients n/total,[6],51/386
same,"2 Rare Alleles (%), Pravastatin Patients","NPC1 hCV25472673, CARE Case/Control",(15.0%)
same,"2 Rare Alleles (%), Pravastatin Patients","NPC1 hCV25472673, CARE Prospective",(14.7%)
same,"2 rare alleles n/total (%), pravastatin patients","NPC1 hCV25472673, Case/Control",(12.6%)
same,"Pravastatin vs placebo odds ratio, 0 rare alleles","NPC1 hCV25472673, Case/Control",1.21
same,"Pravastatin vs placebo odds ratio, 1 rare allele","NPC1 hCV25472673, Case/Control",0.65
same,"Pravastatin vs placebo odds ratio, 2 rare alleles","NPC1 hCV25472673, Case/Control",0.34
same,"2 rare alleles n/total (%), pravastatin patients","NPC1 hCV25472673, Prospective",(8.7%)
same,"Pravastatin vs placebo odds ratio, 0 rare alleles","NPC1 hCV25472673, Prospective",1.25
same,"Pravastatin vs placebo odds ratio, 1 rare allele","NPC1 hCV25472673, Prospective",0.71 and 0.62
same,"Pravastatin vs placebo odds ratio, 2 rare alleles","NPC1 hCV25472673, Prospective",0.49 and 0.34
same,Pravastatin Patients (%),[7],(12.2%)
same,Pravastatin Patients n/total,[7],84/691
same,Pravastatin Patients (%),[8],(17.5%)
same,Pravastatin Patients n/total,[8],84/481
same,Pravastatin Patients (%),[9],(11.9%)
same,Pravastatin Patients n/total,[9],84/706
same,Pravastatin Patients (%),[10],(8.5%)
same,Pravastatin Patients n/total,[10],38/448
same,Pravastatin Patients (%),[11],(12.6%)
same,Pravastatin Patients n/total,[11],38/302
same,Pravastatin Patients (%),[12],(8.4%)
same,Pravastatin Patients n/total,[12],38/455
same,"2 Rare Alleles (%), Pravastatin Patients","PLAB hCV7494810, CARE Prospective",(6.9%)
same,"2 rare alleles n/total (%), pravastatin patients","PLAB hCV7494810, Case/Control",(8.3%)
same,"Pravastatin vs placebo odds ratio, 0 rare alleles","PLAB hCV7494810, Case/Control",0.95
same,"Pravastatin vs placebo odds ratio, 0 rare alleles",[13],1.03
same,"Pravastatin vs placebo odds ratio, 1 rare allele",[13],0.50 and 0.44
same,"Pravastatin vs placebo odds ratio, 2 rare alleles",[13],1.62 and 1.45
same,"2 rare alleles n/total (%), pravastatin patients","PLAB hCV7494810, Prospective",(8.3%)
same,"Pravastatin vs placebo odds ratio, 0 rare alleles","PLAB hCV7494810, Prospective",0.93
same,"Pravastatin vs placebo odds ratio, 0 rare alleles",[14],1.03
same,"Pravastatin vs placebo odds ratio, 1 rare allele",[14],0.52 and 0.46
same,"Pravastatin vs placebo odds ratio, 2 rare alleles",[14],1.61 and 1.24
same,"Pravastatin vs. Placebo Odds Ratio (95% CI), Patients with 0 Rare Alleles",[15],0.84 (0.58 to 1.22)
same,"n/total (%) cases, Pravastatin Patients, 0 Rare Alleles",[15],67/416 (16.1%)
same,"Pravastatin vs. Placebo Odds Ratio (95% CI), Patients with 0 Rare Alleles",[16],0.81 (0.56 to 1.16)
same,"n/total (%) cases, Pravastatin Patients, 0 Rare Alleles",[16],67/423 (15.8%)
same,"Pravastatin vs. Placebo Odds Ratio (95% CI), Patients with 0 Rare Alleles",[17],0.77 (0.61 to 0.98)
same,"n/total (%) cases, Pravastatin Patients, 0 Rare Alleles",[17],183/613 (29.9%)
same,"Pravastatin vs. Placebo Odds Ratio (95% CI), Patients with 1 Rare Allele",[15],0.63 (0.42 to 0.95)
same,"n/total (%) cases, Pravastatin Patients, 1 Rare Allele",[15],50/335 (14.9%)
same,"Pravastatin vs. Placebo Odds Ratio (95% CI), Patients with 1 Rare Allele",[16],0.64 (0.31 to 1.36)
same,"n/total (%) cases, Pravastatin Patients, 1 Rare Allele",[16],50/340 (14.7%)
same,"Pravastatin vs. Placebo Odds Ratio (95% CI), Patients with 1 Rare Allele",[17],0.94 (0.58 to 1.54)
same,"n/total (%) cases, Pravastatin Patients, 1 Rare Allele",[17],151/504 (30.0%)
same,ORs of fatal or non-fatal MI when treated with pravastatin,"PON1 hCV2548962, 2 rare alleles, CARE and WOSCOPs sample sets",0.28-0.34
same,"Pravastatin vs. Placebo Odds Ratio (95% CI), Patients with 2 Rare Alleles",[18],0.29 (0.12 to 0.71)
same,"n/total (%) cases, Pravastatin Patients, 2 Rare Alleles",[18],9/79 (11.4%)
same,"Pravastatin vs. Placebo Odds Ratio (95% CI), Patients with 2 Rare Alleles",[19],0.32 (0.11 to 0.95)
same,"n/total (%) cases, Pravastatin Patients, 2 Rare Alleles",[19],9/80 (11.3%)
same,"Pravastatin vs. Placebo Odds Ratio (95% CI), Patients with 2 Rare Alleles","PON1 hCV2548962, 2 rare alleles, CARE Prospective, Total CHD Events, All Possible controls",0.28 (0.13 to 0.60)
